The text below walks through data of patent publication US20080214621A1, “Cycloalkyl Lactam Derivatives As Inhibitors Of 11-Beta-Hydroxysteroid Dehydrogenase 1” (priority 2004, published 2008).

For the assay, the target named is Human 11β-HSD type 1 (Homo sapiens, UniProt P28845). Kind of assay: 11β-HSD type 1 enzyme assay (NADPH production by fluorescence). It is filed as biochemical. The following applies: recombinant human 11β-HSD type 1 enzyme, cortisol/NADP substrate, three hour incubation at room temperature. The procedure: Human 11β-HSD type 1 activity is measured by assaying NADPH production by fluorescence assay. Solid compounds are dissolved in DMSO to a concentration of 10 mM. Twenty microliters of each are then transferred to a column of a 96-well polypropylene Nunc plate where they are further diluted 50-fold followed by subsequent two-fold titration, ten times across the plate with additional DMSO using a Tecan Genesis 200 automated system. Plates are then transferred to a Tecan Freedom 200 system with an attached Tecan Temo 96-well head and an Ultra 384 plate reader. Reagents are supplied in 96-well polypropylene Nunc plates and are dispensed individually into black 96-well Molecular Devices High Efficiency assay plates (40 μL/well capacity) in the following fashion: 9 μL/well of substrate (2.22 mM NADP, 55.5 μM Cortisol, 10 mM Tris, 0.25% Prionex, 0.1% Triton X100), 3 μL/well of water to compound wells or 3 μL to control and standard wells, 6 μL/well recombinant human 11β-HSD type 1 enzyme, 2 μL/well of compound dilutions. […] Final DMSO concentration is 0.5% for all compounds, controls and standards. Plates are then placed on a shaker by the robotic arm of the Tecan for 15 seconds before being covered and stacked for a three hour incubation period at room temperature. Upon completion of this incubation, the Tecan robotic arm removes each plate individually from the stacker and places them in position for addition of 5 μL/well of a 250 μM carbenoxolone solution to stop the enzymatic reaction. Plates are then shaken once more for 15 seconds then placed into an Ultra 384 microplate reader (355EX/460EM) for detection of NADPH fluorescence.
Chain of Human 11β-HSD type 1 (P28845 whole entry): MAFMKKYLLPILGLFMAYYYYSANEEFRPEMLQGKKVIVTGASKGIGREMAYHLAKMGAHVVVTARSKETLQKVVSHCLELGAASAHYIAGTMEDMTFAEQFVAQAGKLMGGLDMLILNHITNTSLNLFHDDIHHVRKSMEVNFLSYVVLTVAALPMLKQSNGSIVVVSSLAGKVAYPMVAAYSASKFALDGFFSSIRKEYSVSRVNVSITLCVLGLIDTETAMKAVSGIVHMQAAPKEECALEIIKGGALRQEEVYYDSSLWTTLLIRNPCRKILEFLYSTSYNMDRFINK

Turning to `COc1ccc2c(Cl)c(CC3CCN(C4CCCCC4)C3=O)ccc2c1` (stereo not shown) [Example 24, 3-((1-chloro-6-methoxynaphthalen-2-yl)methyl)-1-cyclohexylpyrrolidin-2-one], the IC50 is 213 nM. Next, `COc1ccc2cc(CC3CCN([C@H]4CC[C@@H](O)CC4)C3=O)ccc2c1` (relative stereo) [Example 8, 1-(cis-4-Hydroxy-cyclohexyl)-3-(6-methoxy-naphthalen-2-ylmethyl)-pyrrolidin-2-one]: 247 nM; `COc1ccc2cc(CC3CCN(C4CCCCC4)C3=O)ccc2c1` (stereo not shown) [Example 4, 1-Cyclohexyl-3-(6-methoxy-naphthalen-2-ylmethyl)-pyrrolidin-2-one]: 134 nM; `COc1ccc2ccccc2c1CC1CCCN(C2CCCCC2)C1=O` (stereo not shown) [Example 40, 1-Cyclohexyl-3-(2-methoxy-naphthalene-1-ylmethyl)-piperidin-2-one]: 423 nM.

With `O=C1C(Cc2ccc3cc(-c4c(Cl)cccc4Cl)ccc3c2)CCN1C1CCCCC1` (stereo not shown) [Example 44], the IC50 was found to be 344 nM. Then `O=C1C(Cc2ccc3ccccc3c2Br)CCN1C1CCCCC1` (stereo not shown) [Example 2, 3-(1-Bromo-naphthalen-2-ylmethyl)-1-cyclohexyl-pyrrolidin-2-one], with 354 nM.

Regarding `COc1ccc2cc(CC3CCCN([C@H]4CC[C@H](O)CC4)C3=O)ccc2c1` (stereo partly shown) [Example 34], the IC50 is 353 nM.

As usually defined, the IC50 is the midpoint of a concentration-inhibition curve.
